Measured values published in patent US20170035894A1, “DRUG DELIVERY CONJUGATES FOR TREATING RESISTANT CANCER AND FOR USE IN COMBINATION THERAPY” (ENDOCYTE, INC., priority 2014, published 2017).
Where two headings read alike, the source gives them in different places.

Assays:
[1] = tested on: FR expressing cells (FR+) and cells that do not express FR (FR−); assay: Selectivity for folate receptor expressing cells; type: cell-based, human
KB-DR150 tumors = assay: Vinca resistant KB-DR150 tumor model; type: in vivo, immunodeficient (XID) nu/nu mice
[2] = tested on: M109 (lung carcinoma) tumors; assay: Inhibition of tumor growth, s.c. M109 tumors; type: in vivo, nu/nu mice
Protocol: METHOD. Inhibition of Tumor Growth in Mice. Four to seven week-old mice (Balb/c or nu/nu strains) were purchased from Harlan Sprague Dawley, Inc. (Indianapolis, Ind.). Normal rodent chow contains a high concentration of folic acid (6 mg/kg chow); accordingly, test animals were maintained on a folate-free diet (Harlan diet #TD00434) for about 1 week before tumor implantation to achieve serum folate concentrations close to the range of normal human serum, and during the Method. For tumor cell inoculation, 1×10^6 M109 cells (a syngeneic lung carcinoma) in Balb/c strain, or 1×10^6 KB cells in nu/nu strain, in 100 μL were injected in the subcutis of the dorsal medial area (right axilla). Tumors were measured in two perpendicular directions every 2-3 days using a caliper, and their volumes were calculated as 0.5×L×W^2, where L=measurement of longest axis in mm and W=measurement of axis perpendicular to L in mm.
Test animals (5/group) ere injected i.v., generally three times a week TIW), for 3 weeks with varying doses, such as with 1 μmol/kg to 5 μmol/kg, of the drug delivery conjugate or with an equivalent dose volume of PBS (control), unless otherwise indicated. Dosing solutions were prepared fresh each day in PBS and administered through the lateral tail vein of the mice.

[3] = biological target: T1, folate receptors (FRs) on KB cells (Homo sapiens, UniProt P15328); assay: Relative Affinity Assay (3H-folic acid displacement); type: binding
T1 construct: FR-positive KB cells were heavily seeded into 24-well cell culture plates; endogenous in cells; host or cells: KB cells (human cervical carcinoma)
T1 sequence (P15328 25-234): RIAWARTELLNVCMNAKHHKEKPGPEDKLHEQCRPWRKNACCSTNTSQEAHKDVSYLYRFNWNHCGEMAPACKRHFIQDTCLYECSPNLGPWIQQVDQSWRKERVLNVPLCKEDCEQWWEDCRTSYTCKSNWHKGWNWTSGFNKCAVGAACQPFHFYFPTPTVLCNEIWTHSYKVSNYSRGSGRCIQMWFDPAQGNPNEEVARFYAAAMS
Protocol: METHOD. Relative Affinity Assay. […] Briefly, FR-positive KB cells were heavily seeded into 24-well cell culture plates and allowed to adhere to the plastic for 18 h. Spent incubation media was replaced in designated wells with folate-free RPMI (FFRPMI) supplemented with 100 nM ^3H-folic acid in the absence and presence of increasing concentrations of test article or folic acid. Cells were incubated for 60 min at 37° C. and then rinsed 3 times with PBS, pH 7.4. […] Cell lysates were then collected and added to individual vials containing 5 mL of scintillation cocktail, and then counted for radioactivity. Negative control tubes contained only the ^3H-folic acid in FFRPMI (no competitor). Positive control tubes contained a final concentration of 1 mM folic acid, and CPMs measured in these samples (representing non-specific binding of label) were subtracted from all samples.

KB cells = type: cell-based, human
Protocol: METHOD. Inhibition of Cellular DNA Synthesis. The compounds described herein were evaluated using an in vitro cytotoxicity assay that predicts the ability of the drug to inhibit the growth of folate receptor-positive cells, such as KB cells, RAW264.7 macrophages, and the like. It is to be understood that the choice of cell type can made on the basis of the susceptibility of those selected cells to the drug that forms the conjugate. The test compounds were comprised of folate linked to a respective chemotherapeutic drug, as prepared according to the processes described herein. The test cells were exposed to varying concentrations of folate-drug conjugate, and also in the absence or presence of at least a 100-fold excess of folic acid to assess activity as being specific to folate receptor mediation.
Conjugates of cytotoxic drugs described herein are active against KB cells. The activity is mediated by the folate receptor as indicated by competition experiments using co-administered folic acid. KB cells were exposed for up to 7 h at 37° C. to the indicated concentrations of folate-drug conjugate in the absence or presence of at least a 100-fold excess of folic acid. The cells were then rinsed once with fresh culture medium and incubated in fresh culture medium for 72 hours at 37° C. Cell viability was assessed using a ^3H-thymidine incorporation assay. For compounds described herein, dose-dependent cytotoxicity was generally measurable, and in most cases, the IC50 values (concentration of drug conjugate required to reduce ^3H-thymidine incorporation into newly synthesized DNA by 50%) are in the low nanomolar range.
METHOD. In vitro activity against various cancer cell lines. IC50 values were generated for various cell lines. Cells were heavily seeded in 24-well Falcon plates and allowed to form nearly confluent monolayers overnight. Thirty minutes prior to the addition of the test compound, spent medium was aspirated from all wells and replaced with fresh folate-deficient RPMI medium (FFRPMI). A subset of wells were designated to receive media containing 100 μM folic acid. The cells in the designated wells were used to determine the targeting specificity. Without being bound by theory it is believed herein that the cytotoxic activity produced by test compounds in the presence of excess folic acid, i.e. where there is competition for FR binding, corresponds to the portion of the total activity that is unrelated to FR-specific delivery. Following one rinse with 1 mL of fresh FFRPMI containing 10% heat-inactivated fetal calf serum, each well received 1 mL of medium containing increasing concentrations of test compound (4 wells per sample) in the presence or absence of 100 μM free folic acid as indicated. Treated cells were pulsed for 2 h at 37° C., rinsed 4 times with 0.5 mL of media, and then chased in 1 mL of fresh medium up to 70 h. Spent medium was aspirated from all wells and replaced with fresh medium containing 5 μCi/mL ^3H-thymidine. Following a further 2 h 37° C. incubation, cells were washed 3 times with 0.5 mL of PBS and then treated with 0.5 mL of ice-cold 5% trichloroacetic acid per well. After 15 min, the trichloroacetic acid was aspirated and the cell material solubilized by the addition of 0.5 mL of 0.25 N sodium hydroxide for 15 min. A 450 μL aliquot of each solubilized sample was transferred to a scintillation vial containing 3 mL of Ecolume scintillation cocktail and then counted in a liquid scintillation counter. Final results are expressed as the percentage of ^3H-thymidine incorporation relative to untreated controls.

[4] = difference in IC50 between competed and non-competed group

SMILES: CCCC(=O)OCN(C(=O)[C@@H](NC(=O)[C@H]1CCCCN1C)C(C)CC)[C@H](C[C@@H](OC(C)=O)c1nc(C(=O)N[C@@H](Cc2ccc(O)cc2)C[C@H](C)C(=O)NNC(=O)OCCSSC[C@@H](NC(=O)[C@H](CCC(=O)NC[C@H](O)[C@@H](O)[C@H](O)[C@H](O)CO)NC(=O)[C@@H](CCC(=O)O)NC(=O)[C@H](CCC(=O)NC[C@H](O)[C@@H](O)[C@H](O)[C@H](O)CO)NC(=O)[C@@H](CCC(=O)O)NC(=O)[C@H](CCC(=O)NC[C@H](O)[C@@H](O)[C@H](O)[C@H](O)CO)NC(=O)CC[C@@H](NC(=O)c2ccc(NCc3cnc4nc(N)[nH]c(=O)c4n3)cc2)C(=O)O)C(=O)O)cs1)C(C)C (stereo in doubt) [EC1456]
- binding to low and high FR expressing cells (FR+) ([1]; FR+ cells): high competable binding
- binding to cells that do not express FR (FR−) ([1]; FR− cells): did not show binding
- efficacy of co-administration of EC1456 and doxorubicin (KB-DR150 tumors; EC1456 2 μmol/kg TIW×2 + DOXIL 5 mg/kg BIW×2): enhanced technical effect over both monotherapies
- efficacy of EC1456 alone compared to doxorubicin (DOXIL) (KB-DR150 tumors; EC1456 2 μmol/kg TIW×2 vs DOXIL 5 mg/kg BIW×2): improved efficacy over doxorubicin
- efficacy of co-administration of EC1456 and cisplatin ([2]; EC1456 2 μmol/kg TIW×2 + cisplatin 3 mg/kg BIW×2): enhanced technical effect over both monotherapies
- efficacy of EC1456 alone compared to cisplatin ([2]; EC1456 2 μmol/kg TIW×2 vs cisplatin 3 mg/kg BIW×2): improved efficacy over cisplatin
- Relative Affinity (a) [3]: 0.27
- IC50 (KB cells; FR expression +++, read-out: Activity (IC50)): 2.3 nM
- IC50 (KB cells; IC50 when competed with excess folic acid, read-out: 50% competition (nM) (c)): 1420 nM
- IC50 (KB cells; as determined by thymidine incorporation, read-out: In vitro IC50 (nM) (b)): 1.5 nM
- In vitro specificity (fold) (d) (KB cells; [4]): 944 fold
- specificity for the folate receptor as determined by folic acid competition (KB cells; [4]): ca. 1000 fold
- Competable up to 100 nM (KB cells; folic acid competition): Yes
- improvement in specificity compared to comparator compound EC0531 (KB cells; folic acid competition): 4 fold
